# Results taken from US10479807B2, “Silylated pyrimidine prodrugs and methods of their use” (priority 2014, dated 2019).
# Where two headings read alike, the source gives them in different places.
# Legend:
# L1210 = assay: In vitro cytotoxicity, leukemia; format: cell-based; details: Mus musculus
# mice = assay: Toxicity of formulated Compound XI in mice; format: in vivo; details: nanoemulsion, intravenously on three consecutive days, doses up to 60 mg/kg, observed at the end of one week
# Procedure: Compound XI was successfully formulated in a nanoemulsion at a concentration of 3 mg/ml. The nanoemulsion has an oil phase consisting of an injectable oil and lecithin and an aqueous phase comprising a tonicity adjuster, a stabilizer and water. The emulsions are of oil-in-water type with the mean oil droplets less than 100 nm. Each vehicle is at neutral pH (5-7) and about isotonic. The toxicity of formulated Compound XI was tested in mice. Mice were injected intravenously on three consecutive days with Compound XI at doses of up to 60 mg/kg and observed at the end of one week.
# [1] = Release of 5-azacytidine from prodrug by hydrolysis in PBS; format: physicochemical; details: PBS at room temperature (20° C.)
# MDA-MB-231 = assay: In vitro cytotoxicity, breast; format: cell-based; details: Homo sapiens, MDA-MB-231, read-out: In vitro cytotoxicity IC50, Breast MDA-MB-231
# HCT-116 = assay: In vitro cytotoxicity, colon; format: cell-based; details: Homo sapiens, HCT-116, read-out: In vitro cytotoxicity IC50, Colon HCT-116
# [2] = trifluridine alone; cited from earlier work
smiles,measurement,setting,value
"Nc1ncn([C@@H]2O[C@H](CO)[C@@H](O)[C@H]2O)c(=O)n1 [5-azacyctidine, 5-azacytidine, reference compound]",IC50,"L1210; L1210 leukemia, read-out: In vitro cytotoxicity IC50, Leukemia L1210",1700 to 2400 nM
"C[Si](C)(C)OC[C@H]1O[C@@H](n2cnc(N)nc2=O)C(F)(F)C1O[Si](C)(C)C (stereo partly shown) [Compound XI, 2′,2′-Difluoro-5-azadeoxycytidine-trimethylsilyl]",Toxicity as measured by weight loss,mice,No evidence of toxicity
"C[Si](C)(C)OC[C@H]1O[C@@H](n2cnc(N)nc2=O)[C@@H](O[Si](C)(C)C)C1O[Si](C)(C)C (stereo partly shown) [NUC025, 2′,3′,5′-Tri(trimethylsilyl)-5-azacytidine]",Active drug (5-azacytidine) recovered by hydrolysis,[1],approximately 80%
same,IC50,MDA-MB-231,3280 nM
same,IC50,HCT-116,1080 nM
same,IC50,"L1210; L1210, read-out: In vitro cytotoxicity IC50, Leukemia L1210",1180 nM
"O=c1[nH]c(=O)n([C@H]2C[C@H](O)[C@@H](CO)O2)cc1C(F)(F)F [Trifluridine, 5-trifluorothymidine]",half-life,[2],12 min
